Some test systems named below: CAKI-1 renal; DU-145 prostate; HCC-2998 colon; HCT-116 colon; MDA-MB-231 breast; NCI-H226 lung; NCI-H460 lung; NCI/ADR-RES ovarian; OVCAR-3 ovarian; SK-MEL-28 melanoma.
What all share (experiment): DTP human tumour cell line panel, 48 h

SMILES strings stand for the structures. “And” between values parts separate entries of the source, which are not always exact repeats. Identical values can stand only once.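 Results reflect a 48-hour exposure of cells in 96-well plates to compound at five concentrations. GI50: concentration for 50% inhibition of growth. TGI denotes the concentration required for complete inhibition of growth.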 Some results are limits rather than exact numbers.

By GI50 is commonly meant the concentration at which growth is held to half of that of the control. In general, TGI refers to the concentration giving total growth inhibition. Consider `Nc1cc2c3ccccc3ccc2c2ccccc12`, for which the GI50 is above 100 µM in the experiment with CAKI-1 renal; above 87.4 µM in the experiment on DU-145 prostate; above 100 µM in the experiment on HCC-2998 colon; 13.4 µM in the experiment on HCT-116 colon; 7.36 µM in the experiment on MDA-MB-231 breast; above 61.4 µM in the experiment on NCI-H226 lung. For the same compound, the GI50 is 7.63 µM in the experiment on NCI-H460 lung, above 93.7 µM in the experiment with NCI/ADR-RES ovarian, above 67 µM in the experiment with OVCAR-3 ovarian and above 100 µM in the experiment on SK-MEL-28 melanoma. Further, the TGI with CAKI-1 renal, with DU-145 prostate, with HCC-2998 colon, in the experiment with HCT-116 colon, in the experiment on MDA-MB-231 breast and with NCI-H226 lung was above 100 µM throughout. Besides, the total growth inhibition concentration (TGI) in the experiment on NCI-H460 lung, in the experiment on NCI/ADR-RES ovarian, in the experiment with OVCAR-3 ovarian and with SK-MEL-28 melanoma was above 100 µM throughout.
With `Cc1cc(C(=O)NOCCO)c(Nc2ccc(I)cc2F)n(C)c1=O`, the 50% growth inhibitory concentration (GI50) with CAKI-1 renal was 0.185 µM; in the experiment on DU-145 prostate, > 10 µM and 53.8 µM; in the experiment with HCC-2998 colon, 0.00297 µM and < 0.01 µM; with HCT-116 colon, 0.011 µM and 0.0164 µM; in the experiment with MDA-MB-231 breast it was 0.0075 µM and < 0.01 µM; in the experiment with NCI-H226 lung, > 10 µM and 5.83 µM. Besides, the GI50 in the experiment on NCI-H460 lung is > 10 µM and 46.7 µM; in the experiment with NCI/ADR-RES ovarian, above 90.6 µM; with OVCAR-3 ovarian, above 100 µM; in the experiment with SK-MEL-28 melanoma, 0.00227 µM and < 0.01 µM. Besides, the concentration for total growth inhibition (TGI) in the experiment with CAKI-1 renal is above 100 µM; in the experiment on DU-145 prostate it was above 100 µM; with HCC-2998 colon, above 6.94 µM; in the experiment with HCT-116 colon, above 100 µM; with MDA-MB-231 breast it was above 100 µM; in the experiment with NCI-H226 lung, above 100 µM. Besides, the TGI in the experiment with NCI-H460 lung, in the experiment with NCI/ADR-RES ovarian and with OVCAR-3 ovarian was above 100 µM each time.
On to `OC(CBr)C(O)C(O)C(O)CBr` (configuration not stated), for which the GI50 in the experiment with CAKI-1 renal was 9.66 µM and 44.7 µM; with HCT-116 colon it was 37.3 µM and > 100 µM; in the experiment with NCI/ADR-RES ovarian, above 100 µM. For the same compound, the concentration for total growth inhibition (TGI) with CAKI-1 renal, in the experiment on DU-145 prostate, with HCC-2998 colon, in the experiment on HCT-116 colon, in the experiment on MDA-MB-231 breast and in the experiment with NCI-H226 lung was above 100 µM each time. Moreover, the TGI in the experiment on NCI-H460 lung was above 100 µM; in the experiment with NCI/ADR-RES ovarian, above 100 µM; in the experiment on OVCAR-3 ovarian, 97 µM and > 100 µM; in the experiment on SK-MEL-28 melanoma, above 100 µM.
For the compound `CN(N=O)N1C(=O)SCC(c2ccccc2)(c2ccccc2)C1=O`, the TGI with CAKI-1 renal is above 100 µM; in the experiment on DU-145 prostate, above 100 µM; in the experiment on HCC-2998 colon, above 100 µM; in the experiment with HCT-116 colon, above 100 µM; in the experiment with MDA-MB-231 breast it was above 100 µM; in the experiment on NCI-H226 lung, 52.7 µM. Also, the TGI in the experiment with NCI-H460 lung, with NCI/ADR-RES ovarian, in the experiment with OVCAR-3 ovarian and with SK-MEL-28 melanoma was above 100 µM each time.
As for `COc1ccc(C2CC(=O)Nc3c2c(C)nn3-c2nc3ccccc3[nH]2)cc1OC` (configuration not stated), the GI50 in the experiment with CAKI-1 renal was 3.83 µM; in the experiment with DU-145 prostate, 6.87 µM; in the experiment on HCC-2998 colon, 10.9 µM; in the experiment with HCT-116 colon, 3.31 µM; in the experiment with MDA-MB-231 breast, 4.39 µM; in the experiment on NCI-H226 lung it was 3.31 µM. For the same compound, the GI50 in the experiment on NCI-H460 lung was 3.46 µM; with NCI/ADR-RES ovarian it was 12 µM; in the experiment with OVCAR-3 ovarian it was 3.99 µM; in the experiment with SK-MEL-28 melanoma, 4.9 µM. For the same compound, the concentration for total growth inhibition (TGI) with CAKI-1 renal is 24.3 µM; in the experiment on DU-145 prostate it was 27.1 µM; in the experiment on HCC-2998 colon, 41.2 µM; with HCT-116 colon it was 14.9 µM; with MDA-MB-231 breast, 21 µM; with NCI-H226 lung, 14.1 µM. Also, the total growth inhibition concentration (TGI) with NCI-H460 lung was 16.2 µM; in the experiment with NCI/ADR-RES ovarian, above 100 µM; in the experiment with OVCAR-3 ovarian, 14 µM; in the experiment with SK-MEL-28 melanoma, above 100 µM.
`Cc1cc(C2CC(O)C(CO)O2)c(Br)cc1Br` (configuration not stated): the GI50 in the experiment with CAKI-1 renal is above 100 µM; in the experiment with DU-145 prostate it was above 100 µM; in the experiment with HCC-2998 colon it was above 100 µM; with HCT-116 colon, above 100 µM; in the experiment with MDA-MB-231 breast it was 58.5 µM; in the experiment on NCI-H226 lung it was above 100 µM. The GI50 in the experiment with NCI-H460 lung, in the experiment with NCI/ADR-RES ovarian, with OVCAR-3 ovarian and with SK-MEL-28 melanoma was above 100 µM each time. Moreover, the TGI with CAKI-1 renal, in the experiment with DU-145 prostate, in the experiment with HCC-2998 colon, with HCT-116 colon, in the experiment with MDA-MB-231 breast and in the experiment on NCI-H226 lung was above 100 µM each time. The TGI in the experiment on NCI-H460 lung, with NCI/ADR-RES ovarian, with OVCAR-3 ovarian and with SK-MEL-28 melanoma was above 100 µM each time.
With `Nc1nc(N)c2c(n1)NC(c1ccc(Cl)cc1)C1CCc3ccccc3C1=N2` (configuration not stated), the GI50 with CAKI-1 renal was 4.33 µM; in the experiment with DU-145 prostate, 11.2 µM; in the experiment with HCC-2998 colon, 12.2 µM; in the experiment on HCT-116 colon it was 3.72 µM; in the experiment on MDA-MB-231 breast it was 9.73 µM; with NCI-H226 lung it was 8.58 µM. Also, the GI50 in the experiment with NCI-H460 lung is 3.77 µM; in the experiment on NCI/ADR-RES ovarian it was 5.53 µM; in the experiment on OVCAR-3 ovarian, 6.46 µM; with SK-MEL-28 melanoma, 13.9 µM. Also, the total growth inhibition concentration (TGI) turned out to be 18.8 µM in the experiment with CAKI-1 renal; 23.3 µM in the experiment with DU-145 prostate; 24.7 µM in the experiment on HCC-2998 colon; 14.9 µM in the experiment with HCT-116 colon; 21.8 µM in the experiment on MDA-MB-231 breast; 27.8 µM with NCI-H226 lung. The total growth inhibition concentration (TGI) worked out at 12.9 µM with NCI-H460 lung, 18.2 µM in the experiment with NCI/ADR-RES ovarian, 19 µM with OVCAR-3 ovarian and 27.4 µM with SK-MEL-28 melanoma.
Take `c1ccc2c(c1)CCCc1nnc3nc4ccccc4n3c1-2`: the GI50 is 5.32 µM in the experiment on CAKI-1 renal; 4.91 µM with DU-145 prostate; 6.45 µM in the experiment on HCC-2998 colon; 3.35 µM with HCT-116 colon; 4.98 µM with MDA-MB-231 breast; 6.39 µM in the experiment on NCI-H226 lung. Moreover, the GI50 is 3.65 µM in the experiment on NCI-H460 lung, 3.32 µM with NCI/ADR-RES ovarian, 4.37 µM with OVCAR-3 ovarian and 9.43 µM with SK-MEL-28 melanoma. The total growth inhibition concentration (TGI) in the experiment on CAKI-1 renal is above 100 µM; with DU-145 prostate, above 100 µM; in the experiment on HCC-2998 colon, 24.1 µM; in the experiment on HCT-116 colon, 13.8 µM; with MDA-MB-231 breast it was above 100 µM; in the experiment with NCI-H226 lung it was above 100 µM. The total growth inhibition concentration (TGI) in the experiment with NCI-H460 lung is 16.6 µM; in the experiment with NCI/ADR-RES ovarian, 25.1 µM; in the experiment with OVCAR-3 ovarian, 37.8 µM; with SK-MEL-28 melanoma it was above 100 µM.
